US20220257571A1, “INHIBITOR OF MAP KINASE INTERACTING SERINE/THREONINE KINASE 1 (MNK1) AND MAP KINASE INTERACTING SERINE/THREONINE KINASE 2 (MNK2), CANCER THERAPY AND THERAPEUTIC COMBINATIONS” (FUNPACIÓ HOSPITAL UNIVERSITARI VALL D'HEBRON - INSTITUT DE …, priority 2019, published 2022)

How the values were obtained:
[1] = molecular target: T1, EphA4 receptor tyrosine kinase (Homo sapiens, UniProt P54764); test: inhibitory test of EphA4 in the kinase panel; format: biochemical
T1 construct: purchased Proqinase
T1 sequence (P54764 20-986): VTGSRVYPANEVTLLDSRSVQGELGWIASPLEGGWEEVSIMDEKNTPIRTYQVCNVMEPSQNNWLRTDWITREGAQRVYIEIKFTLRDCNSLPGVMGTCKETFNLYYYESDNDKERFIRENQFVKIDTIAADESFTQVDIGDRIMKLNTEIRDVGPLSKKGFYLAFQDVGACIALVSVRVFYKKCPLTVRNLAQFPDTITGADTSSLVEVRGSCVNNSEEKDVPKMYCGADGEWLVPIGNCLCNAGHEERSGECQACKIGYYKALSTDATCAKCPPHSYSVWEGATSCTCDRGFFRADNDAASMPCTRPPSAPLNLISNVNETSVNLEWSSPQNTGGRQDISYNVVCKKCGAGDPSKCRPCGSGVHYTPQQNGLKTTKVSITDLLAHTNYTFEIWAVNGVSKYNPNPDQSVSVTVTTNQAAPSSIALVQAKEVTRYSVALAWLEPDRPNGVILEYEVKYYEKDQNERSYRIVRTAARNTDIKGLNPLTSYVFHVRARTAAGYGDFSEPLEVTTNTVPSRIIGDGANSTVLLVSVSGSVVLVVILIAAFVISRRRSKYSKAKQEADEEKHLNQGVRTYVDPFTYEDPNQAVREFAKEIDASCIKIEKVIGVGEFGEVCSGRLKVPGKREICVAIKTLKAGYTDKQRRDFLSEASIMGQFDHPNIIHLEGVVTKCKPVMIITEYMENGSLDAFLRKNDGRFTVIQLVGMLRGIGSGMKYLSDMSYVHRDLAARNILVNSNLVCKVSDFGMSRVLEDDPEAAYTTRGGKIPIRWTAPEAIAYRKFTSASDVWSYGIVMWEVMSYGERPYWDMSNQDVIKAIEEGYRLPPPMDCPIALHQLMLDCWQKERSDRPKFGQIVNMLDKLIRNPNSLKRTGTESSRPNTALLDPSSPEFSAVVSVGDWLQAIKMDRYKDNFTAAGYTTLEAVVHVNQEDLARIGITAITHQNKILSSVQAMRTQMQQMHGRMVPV
Description: The kinase activity of the compound was measured by a radiometric kinase assay (^33PanQinase® Activity Assay) carried out by Proqinase (www.proqinase.com).
The assays were carried out in 96-well FlashPlates™ by PerkinElmer (Boston, Mass., USA) with a reaction volume of 50 μl. The reaction cocktail was pipetted in 4 steps: (1) 20 μl buffer, (2) 5 μl ATP solution (in H2O), (3) 5 μl compound (in 10% DMSO) and (4) 20 μl enzyme/substrate mixture. Lastly, the cocktail contained 70 mM HEPES-NaOH pH 7.5, 3 mM MgCl2, 3 mM MnCl2, 3 μM sodium orthovanadate, 1.2 mM DTT, 50 μg/ml PEG20000, ATP (1 μM for MNK1 and 0.3 μM for MNK2), [γ-^33P]-ATP (approx. […] per well), protein kinase (variable amounts depending on the batch) and substrate (2 μg/50 μl).
Reaction cocktails were incubated at 30° C. for 60 minutes. The reaction was stopped with 50 μl of 2% H3PO4 (v/v), the plates were sucked, they were washed twice with 200 μl of 0.9% NaCl (w/v) and the incorporation of ^33Pi (MicroBeta microplate scintillation counter, Wallac) was determined. […]
The residual activity (in %) for each well of a particular plate was calculated using the following formula (wherein high control is the kinase activity in absence of an inhibitor and low control is the radioactivity value of the substrate in absence of a kinase).
To study selectivity, residual activity was measured at 1 μM from a 320-kinase panel.

[2] = tested on: PD-L1 in MDA-MB-231 cells; test: PD-L1 levels by western blot in MDA-MB-231 cells; format: cell-based, human
Description: MDA-MB-231 cells were treated for 48 h with the indicated concentrations of the inhibitors. DMSO was used as vehicle control. Protein extracts were prepared and western blot analysis were carried out. Data are depicted in FIG. 10.

MCF10 cells = test: in vitro proliferation assay (crystal violet), MCF10; format: cell-based; conditions: non-tumour cells MCF10, concentrations necessary to inhibit MNK activity
Description: MCF10A cells (also commercially available) were grown in DMEM/F-12 medium (Dulbecco's Modified Eagle Medium: 3.125 g/L D-Glucosa, 365 mg/L L-Glutamine, Nutrient Mixture F-12 (Gibco)) supplemented with 10% FBS, 100 U/ml penicillin, 100 μg/ml streptomycin, 1% L-Glutamine (Cambrex), 10 ng/ml choleric toxin (Sigma-Aldrich), 0.005 mg/ml insulin (Sigma), 100 ng/ml hydrocortisone (Sigma) and 20 ng/ml EGF (Epidermal growth factor, Sigma).
In 96-well plates, 5000 cells were seeded for each condition. After 24 h, the cells were treated with the compound at the corresponding concentration. The stocks of compounds were prepared in 100% DMSO at a concentration 200 times more concentrated than the treatment concentration. Thus, in all cases, the final concentration of DMSO in the medium is 0.5%. After incubation, the medium was removed and the cells were fixed with 4% PFA (100 μl per well) for 30 minutes. Two washes with PBS were performed.
Cells were stained with crystal violet (0.5% in EtOH): 100 μl were added to each well, stirred for 15 minutes, washed with water and left to dry. The content of each well was dissolved in 200 μl of 15% AcOH and the absorbance thereof was measured at 595 nm.

Compound: Nc1n[nH]c2nc(-c3ccccc3)cc(-c3ccccc3)c12 [EB1, 4,6-diphenyl-1H-pyrazolo[3,4-b]pyridin-3-amine]
- inhibition at 1 µM [1]: 10%
- levels of PD-L1 ([2]; MDA-MB-231, 48 h): reduces levels of PD-L1
- potency on PD-L1 compared with eFT508 and CGP57380 ([2]; at comparable inhibition rates of eIF4E phosphorylation): equally potent or superior
- effect on cell growth (MCF10 cells): does not affect the cell growth
